The source of these data is US9365541B2, “Compounds for use in the treatment of parasitic diseases” (IRBM—SCIENCE PARK S.P.A., priority 2012, dated 2016).

As usually defined, the IC50 is the midpoint of a concentration-inhibition curve. As usually defined, the EC50 is the concentration at which the effect is half-maximal. A high value points to a need for much substance.

Bounds are passed on as bounds.

Test [1] concerns the target T1, human HDAC1 (Homo sapiens, UniProt Q13547).
T1 construct: made in house; host or cells: HeLa (ATCC CCL-2), mammalian cells
Description: Homo sapiens HDAC1 inhibition assay (Fluor-de-Lys, enzymatic). Type of test: biochemical. The settings on record: human HDAC enzymatic assay; read-out: hHDAC IC50. The procedure, abridged: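 Product developed with trypsin developer containing 2 μM TSA to stop the reaction; fluorescence measures deacetylase activity, inversely related to inhibition.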

In test [2] the test system is Plasmodium falciparum 3D7. Nature of the test: P. falciparum growth inhibition assay (Pf-LDH). The settings on record: Plasmodium falciparum, Erythrocyte; P. falciparum 3D7 infected erythrocytes, 72 h incubation, PfLDH readout. Type of test: cell-based. The procedure, abridged:
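P. falciparum 3D7 (chloroquine-sensitive) at 0.25% parasitemia and 2% hematocrit was incubated with compound for 72 h at 37° C under 4% CO2/3% O2/93% N2. After freeze-thaw, PfLDH activity was read at 650 nm with lactate/APAD/NBT/diaphorase mix (pH 8.0).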

T1 sequence (Q13547 whole entry): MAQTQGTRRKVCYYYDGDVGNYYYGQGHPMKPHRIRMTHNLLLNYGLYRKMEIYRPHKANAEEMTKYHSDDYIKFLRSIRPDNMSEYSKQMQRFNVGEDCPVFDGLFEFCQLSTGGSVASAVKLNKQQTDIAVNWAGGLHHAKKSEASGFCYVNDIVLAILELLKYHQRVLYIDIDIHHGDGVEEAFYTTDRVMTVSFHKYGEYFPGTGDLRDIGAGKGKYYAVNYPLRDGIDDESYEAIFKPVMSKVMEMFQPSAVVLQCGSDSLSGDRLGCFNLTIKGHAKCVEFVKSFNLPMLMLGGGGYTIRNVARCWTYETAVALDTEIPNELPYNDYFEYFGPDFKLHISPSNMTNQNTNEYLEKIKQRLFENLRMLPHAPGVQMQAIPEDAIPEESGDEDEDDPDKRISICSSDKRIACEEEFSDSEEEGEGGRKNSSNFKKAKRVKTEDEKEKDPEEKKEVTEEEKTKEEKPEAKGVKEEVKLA

Turning to `CNC(=O)CCCCC[C@H](NC(=O)Cc1n[nH]c(=O)[nH]1)c1ncc(-c2ccc3ccccc3c2)[nH]1` [Entry 115], the IC50 in test [1] lay in the range of 1 to 5 µM. In test [2], the EC50 was 1 to 5 µM.

Turning to `CNC(=O)CCCCC[C@H](NC(=O)Cn1cnnc1)c1ncc(-c2ccc3ccccc3c2)[nH]1` [Entry 116, (S)-7-(2-(4H-1,2,4-triazol-4-yl)acetamido)-N-methyl-7-(5-(naphthalen-2-yl)-1H-imidazol-2-yl)heptanamide], the IC50 in test [1] is 1 to 5 µM. The same compound came in with an EC50 in test [2] of 1 to 5 µM.

With `CNC(=O)CCCCC[C@H](NC(=O)c1ccc(-n2cnnn2)cc1)c1ncc(-c2ccc3ccccc3c2)[nH]1` [Entry 117, (S)-N-(7-(methylamino)-1-(5-(naphthalen-2-yl)-1H-imidazol-2-yl)-7-oxoheptyl)-4-(1H-tetrazol-1-yl)benzamide], in test [1], the IC50 lay within 1 to 5 µM. Moreover, in test [2], the EC50 lay in the range of 1 to 5 µM.

Turning to `CNC(=O)CCCCC[C@H](NC(=O)C1CCN(C)CC1)c1ncc(-c2ccc3ccncc3c2)[nH]1` [Entry 118, (S)-N-(1-(5-(isoquinolin-7-yl)-1H-imidazol-2-yl)-7-(methylamino)-7-oxoheptyl)-1-methylpiperidine-4-carboxamide], in test [1], the IC50 lay in the range of 1 to 5 µM. Also, the EC50 in test [2] was in the range of 1 to 5 µM.

For `CNC(=O)CCCCC[C@H](NC(=O)Cn1ccc(C)n1)c1ncc(-c2ccc3ccncc3c2)[nH]1` [Entry 119], in test [1], the IC50 was 1 to 5 µM. Further, the EC50 in test [2] lay in the range of 1 to 5 µM.

Take `CNC(=O)CCCCC[C@H](NC(=O)c1cncs1)c1ncc(-c2ccc(-c3ncccn3)cc2)[nH]1` [Entry 120, (S)-N-(7-(methylamino)-7-oxo-1-(5-(4-(pyrimidin-2-yl)phenyl)-1H-imidazol-2-yl)heptyl)thiazole-5-carboxamide]: the IC50 in test [1] lay within 1 to 5 µM. The compound also had a concentration giving a half-maximal response (EC50) in test [2] of 1 to 5 µM.

For the compound `CNC(=O)CCCCC[C@H](NC(=O)C1(C)CCCO1)c1ncc(-c2ccc3ccncc3c2)[nH]1` (stereo partly drawn) [Entry 121, N-((S)-1-(5-(isoquinolin-7-yl)-1H-imidazol-2-yl)-7-(methylamino)-7-oxoheptyl)-2-methyltetrahydrofuran-2-carboxamide], the IC50 in test [1] was > 5 µM. Besides, the EC50 in test [2] is > 5 µM.

As for `CNC(=O)CCCCC[C@H](NC(=O)CCc1c(C)nc2ncnn2c1C)c1ncc(-c2ccc3ccncc3c2)[nH]1` [Entry 122], in test [1], the IC50 is < 1 µM. Also, the EC50 in test [2] was < 1 µM.

Consider `CNC(=O)CCCCC[C@H](NC(=O)C1(C)CCCO1)c1ncc(-c2ccc(-c3ccn(C)n3)cc2)[nH]1` (stereo partly drawn) [Entry 123, 2-methyl-N-((S)-1-(5-(4-(1-methyl-1H-pyrazol-3-yl)phenyl)-1H-imidazol-2-yl)-7-(methylamino)-7-oxoheptyl)tetra-hydrofuran-2-carboxamide], for which the concentration for half-maximal inhibition (IC50) in test [1] is > 5 µM. For the same compound, in test [2], the EC50 is > 5 µM.

With `CNC(=O)CCCCC[C@H](NC(=O)c1cnc(CN2CCCC2)s1)c1ncc(-c2ccc(-c3ccn(C)n3)cc2)[nH]1` [Entry 124, (S)-N-(1-(5-(4-(1-methyl-1H-pyrazol-3-yl)phenyl)-1H-imidazol-2-yl)-7-(methylamino)-7-oxoheptyl)-2-(pyrrolidin-1-ylmethyl)thiazole-5-carboxamide], in test [1], the IC50 was 1 to 5 µM. In test [2], the EC50 is < 1 µM.

In the case of `CNC(=O)CCCCC[C@H](NC(=O)c1cncs1)c1ncc(-c2ccn3ncnc3c2)[nH]1` [Entry 125, (S)-N-(1-(5-([1,2,4]triazolo[1,5-a]pyridin-7-yl)-1H-imidazol-2-yl)-7-(methylamino)-7-oxoheptyl)thiazole-5-carboxamide], in test [1], the IC50 is > 5 µM. In addition, the EC50 in test [2] was > 5 µM.

In the case of `CNC(=O)CCCCC[C@H](NC(=O)c1cncs1)c1ncc(-c2ccc3ncccc3c2)[nH]1` [Entry 127, (S)-N-(7-(methylamino)-7-oxo-1-(5-(quinolin-6-yl)-1H-imidazol-2-yl)heptyl)thiazole-5-carboxamide], the IC50 in test [1] was 1 to 5 µM. For the same compound, the EC50 in test [2] is < 1 µM.

In the case of `CNC(=O)CCCCC[C@H](NC(=O)c1cncs1)c1ncc(-c2ccc3ccccc3n2)[nH]1` [Entry 128, (S)-N-(7-(methylamino)-7-oxo-1-(5-(quinolin-2-yl)-1H-imidazol-2-yl)heptyl)thiazole-5-carboxamide], in test [1], the concentration for half-maximal inhibition (IC50) is > 5 µM. In test [2], this compound came in with an EC50 of 1 to 5 µM.

Take `CNC(=O)CCCCC[C@H](NC(=O)c1cncs1)c1ncc(-c2ccc(Cl)c(Cl)c2)[nH]1` [Entry 129, (S)-N-(1-(5-(3,4-dichlorophenyl)-1H-imidazol-2-yl)-7-(methylamino)-7-oxoheptyl)thiazole-5-carboxamide]: the IC50 in test [1] was > 5 µM. The EC50 in test [2] was > 5 µM.

Regarding `CNC(=O)CCCCC[C@H](NC(=O)CCN1CCOCC1)c1ncc(-c2cc3ccccc3nc2OC)[nH]1` [Entry 130], the IC50 in test [1] was > 5 µM. Besides, the EC50 in test [2] lay within 1 to 5 µM.

On to `CNC(=O)CCCCC[C@H](NC(=O)CCN1CCN(C)CC1)c1ncc(-c2cc3ccccc3nc2OC)[nH]1` [Entry 131], for which the IC50 in test [1] is < 1 µM. Further, in test [2], the EC50 fell in the range of 1 to 5 µM.

As for `CNC(=O)CCCCC[C@H](NC(=O)c1cncs1)c1ncc(-c2ccc3c(ccn3C)c2)[nH]1` [Entry 132, (S)-N-(1-(5-(1-methyl-1H-indol-5-yl)-1H-imidazol-2-yl)-7-(methylamino)-7-oxoheptyl)thiazole-5-carboxamide], the IC50 in test [1] was < 1 µM. In test [2], the half-maximal effective concentration (EC50) was < 1 µM.

As for `CNC(=O)CCCCC[C@H](NC(=O)C1(C)CCOCC1)c1ncc(-c2cc3ccccc3nc2OC)[nH]1` [Entry 133, (S)-N-(1-(5-(2-methoxyquinolin-3-yl)-1H-imidazol-2-yl)-7-(methylamino)-7-oxoheptyl)-4-methyltetrahydro-2H-pyran-4-carboxamide], the IC50 in test [1] was 1 to 5 µM. The same compound came in with an EC50 in test [2] of 1 to 5 µM.

As for `CNC(=O)CCCCC[C@H](NC(=O)CCc1cnn(C)c1)c1ncc(-c2cc3ccccc3nc2OC)[nH]1` [Entry 134], the IC50 in test [1] was > 5 µM. Further, the half-maximal effective concentration (EC50) in test [2] was in the range of 1 to 5 µM.

As for `CNC(=O)CCCCC[C@H](NC(=O)c1ccn(C)n1)c1ncc(-c2cc3ccccc3nc2OC)[nH]1` [Entry 135, (S)-N-(1-(5-(2-methoxyquinolin-3-yl)-1H-imidazol-2-yl)-7-(methylamino)-7-oxoheptyl)-1-methyl-1H-pyrazole-3-carboxamide], in test [1], the IC50 is > 5 µM. The same compound came in with a concentration giving a half-maximal response (EC50) in test [2] of 1 to 5 µM.

Take `CNC(=O)CCCCC[C@H](NC(=O)c1cncs1)c1ncc(-c2ccc3occc3c2)[nH]1` [Entry 136, (S)-N-(1-(5-(benzofuran-5-yl)-1H-imidazol-2-yl)-7-(methylamino)-7-oxoheptyl)thiazole-5-carboxamide]: the IC50 in test [1] was > 5 µM. Further, the EC50 in test [2] was > 5 µM.

For `CNC(=O)CCCCC[C@H](NC(=O)c1cncs1)c1ncc(-c2ccc3ccccc3c2F)[nH]1` [Entry 137, (S)-N-(1-(5-(1-fluoronaphthalen-2-yl)-1H-imidazol-2-yl)-7-(methylamino)-7-oxoheptyl)thiazole-5-carboxamide], the IC50 in test [1] is > 5 µM. The EC50 in test [2] is > 5 µM.

Regarding `CNC(=O)CCCCC[C@H](NC(=O)c1cncs1)c1ncc(-c2ccc3cnccc3c2)[nH]1` [Entry 138, (S)-N-(1-(5-(isoquinolin-6-yl)-1H-imidazol-2-yl)-7-(methylamino)-7-oxoheptyl)thiazole-5-carboxamide], in test [1], the IC50 was 1 to 5 µM. For the same compound, in test [2], the EC50 is < 1 µM.

Consider `CNC(=O)CCCCC[C@H](NC(=O)c1cncs1)c1ncc(-c2ccc(-c3ccccn3)cc2)[nH]1` [Entry 139, (S)-N-(7-(methylamino)-7-oxo-1-(5-(4-(pyridin-2-yl)phenyl)-1H-imidazol-2-yl)heptyl)thiazole-5-carboxamide], for which the IC50 in test [1] was 1 to 5 µM. Further, the EC50 in test [2] fell in the range of 1 to 5 µM.

Consider `CNC(=O)CCCCC[C@H](NC(=O)c1cncs1)c1ncc(-c2cc3ccccc3n(C)c2=O)[nH]1` [Entry 140, (S)-N-(1-(5-(1-methyl-2-oxo-1,2-dihydroquinolin-3-yl)-1H-imidazol-2-yl)-7-(methylamino)-7-oxoheptyl)thiazole-5-carboxamide], for which the IC50 in test [1] fell in the range of 1 to 5 µM. This compound showed an EC50 in test [2] of 1 to 5 µM.

Take `CNC(=O)CCCCC[C@H](NC(=O)c1cnc(CN2CCCC2)s1)c1ncc(-c2ccc(-n3cccn3)cc2)[nH]1` [Entry 141, (S)-N-(1-(5-(4-(1H-pyrazol-1-yl)phenyl)-1H-imidazol-2-yl)-7-(methylamino)-7-oxoheptyl)-2-(pyrrolidin-1-ylmethyl)thiazole-5-carboxamide]: the IC50 in test [1] lay within 1 to 5 µM. In test [2], the EC50 fell in the range of 1 to 5 µM.

For `CNC(=O)CCCCC[C@H](NC(=O)CCc1nc2ccccc2s1)c1ncc(-c2ccc(-n3cccn3)cc2)[nH]1` [Entry 142, (S)-7-(5-(4-(1H-pyrazol-1-yl)phenyl)-1H-imidazol-2-yl)-7-(3-(benzo[d]thiazol-2-yl)propanamido)-N-methylheptanamide], in test [1], the IC50 was in the range of 1 to 5 µM. This compound came in with a half-maximal effective concentration (EC50) in test [2] of 1 to 5 µM.

On to `CNC(=O)CCCCC[C@H](NC(=O)c1cncs1)c1ncc(-c2ccc3ccncc3c2)[nH]1` [Entry 143, (S)-N-(1-(5-(isoquinolin-7-yl)-1H-imidazol-2-yl)-7-(methylamino)-7-oxoheptyl)thiazole-5-carboxamide], for which, in test [1], the IC50 was < 1 µM. Further, the EC50 in test [2] is < 1 µM.

On to `CNC(=O)CCCCC[C@H](NC(=O)c1cn2ccccc2n1)c1ncc(-c2ccc3ccccc3c2)[nH]1` [Entry 144, (S)-N-(7-(methylamino)-1-(5-(naphthalen-2-yl)-1H-imidazol-2-yl)-7-oxo-heptyl)imidazo[1,2-a]pyridine-2-carboxamide], for which the IC50 in test [1] was > 5 µM. Further, in test [2], the EC50 was > 5 µM.
